Source: ChEMBL document CHEMBL1154658, “Novel macrocyclic inhibitors of hepatitis C NS3/4A protease featuring a 2-amino-1,3-thiazole as a P4 carbamate replacement” (J Med Chem, 2009)
Blank lines part the entries; values can stand above or below the compound they belong to.

Legend:
Hepatitis C virus [1] = assay: Inhibition of HCV 1b NS3/4A protease by time-resolved fluorescence assay; parameters: species or system Hepatitis C virus subtype 1b
Hepatitis C virus [2] = assay: Antiviral activity against HCV 1b infected in human Huh7 cells by bicistronic replicon RNA assay in presence of 10% fetal bovine serum; format: functional, organism-based, Hepacivirus hominis; conditions: genotype 1b, Huh-7
Hepatitis C virus [3] = assay: Antiviral activity against HCV 1b infected in human Huh7 cells by bicistronic replicon RNA assay in presence of 50% normal human serum; format: functional, organism-based, Hepacivirus hominis; conditions: genotype 1b, Huh-7
[4] = (§1) AUC (0 to 4 hrs) in Sprague-Dawley rat at 5 mg/kg, po; format: ADME, organism-based, Plasma; parameters: time < 4 hr, dose 5 mg/kg, route oral; conditions: Sprague-Dawley, plasma
[5] = Drug level in Sprague-Dawley rat liver at 5 mg/kg, po after 4 hrs; format: ADME, organism-based; parameters: dose 5 mg/kg, route oral; conditions: read-out: Drug uptake
Rattus norvegicus [6] = assay: Plasma clearance in Sprague-Dawley rat at 5 mg/kg, po; format: ADME, organism-based; parameters: dose 5 mg/kg, route oral; conditions: in vivo
Rattus norvegicus [7] = assay: as §1; format: ADME, organism-based, Plasma; parameters: time < 4 hr, dose 5 mg/kg, route oral; conditions: in vivo, 4 h
[8] = Oral bioavailability in Sprague-Dawley rat at 5 mg/kg; format: ADME, organism-based; conditions: in vivo
[9] = Plasma clearance in Beagle dog at 2 mg/kg, iv; format: ADME, organism-based, Canis lupus familiaris; parameters: dose 2 mg/kg, route intravenous
[10] = AUC in Sprague-Dawley rat at 5 mg/kg, po; format: ADME, organism-based; parameters: dose 5 mg/kg, route oral; conditions: plasma
[11] = AUC in Sprague-Dawley rat at 10 mg/kg, po; format: ADME, organism-based; parameters: dose 10 mg/kg, route oral; conditions: plasma
[12] = AUC in Sprague-Dawley rat at 20 mg/kg, po; format: ADME, organism-based; parameters: dose 20 mg/kg, route oral; conditions: plasma
[13] = AUC in Sprague-Dawley rat at 30 mg/kg, po; format: ADME, organism-based; parameters: dose 30 mg/kg, route oral; conditions: plasma
[14] = AUC in Beagle dog at 2 mg/kg, iv; format: ADME, organism-based, Canis lupus familiaris; parameters: dose 2 mg/kg, route intravenous; conditions: plasma
[15] = AUC in Beagle dog at 5 mg/kg, po; format: ADME, organism-based, Canis lupus familiaris; parameters: dose 5 mg/kg, route oral; conditions: plasma
[16] = AUC in Beagle dog at 10 mg/kg, po; format: ADME, organism-based, Canis lupus familiaris; parameters: dose 10 mg/kg, route oral; conditions: plasma
[17] = Cmax in Sprague-Dawley rat at 5 mg/kg, po; format: ADME, organism-based; parameters: dose 5 mg/kg, route oral; conditions: in vivo
[18] = Cmax in Sprague-Dawley rat at 10 mg/kg, po; format: ADME, organism-based; parameters: dose 10 mg/kg, route oral; conditions: in vivo
[19] = Cmax in Sprague-Dawley rat at 20 mg/kg, po; format: ADME, organism-based; parameters: dose 20 mg/kg, route oral; conditions: in vivo
[20] = Cmax in Sprague-Dawley rat at 30 mg/kg, po; format: ADME, organism-based; parameters: dose 30 mg/kg, route oral; conditions: in vivo
[21] = Cmax in Beagle dog at 2 mg/kg, iv; format: ADME, organism-based, Canis lupus familiaris; parameters: dose 2 mg/kg, route intravenous; conditions: in vivo
[22] = Cmax in Beagle dog at 5 mg/kg, po; format: ADME, organism-based, Canis lupus familiaris; parameters: dose 5 mg/kg, route oral; conditions: in vivo
[23] = Cmax in Beagle dog at 10 mg/kg, po; format: ADME, organism-based, Canis lupus familiaris; parameters: dose 10 mg/kg, route oral; conditions: in vivo
[24] = Bioavailability in Beagle dog at 2 mg/kg, iv; format: ADME, organism-based, Canis lupus familiaris; conditions: in vivo
[25] = Drug level in Sprague-Dawley rat liver at 5 mg/kg, po after 24 hrs; format: ADME, organism-based; parameters: dose 5 mg/kg, route oral; conditions: read-out: Drug uptake
[26] = Drug level in Sprague-Dawley rat liver at 20 mg/kg, po after 24 hrs; format: ADME, organism-based; parameters: dose 20 mg/kg, route oral; conditions: read-out: Drug uptake
[27] = Drug level in Sprague-Dawley rat liver at 30 mg/kg, po after 24 hrs; format: ADME, organism-based; parameters: dose 30 mg/kg, route oral; conditions: read-out: Drug uptake
[28] = Drug level in Sprague-Dawley rat liver at 4 mg/kg, po after 4 hrs; format: ADME, organism-based; parameters: dose 4 mg/kg, route oral; conditions: read-out: Drug uptake
[29] = Oral bioavailability in Sprague-Dawley rat at 4 mg/kg; format: ADME, organism-based; conditions: in vivo
Rattus norvegicus [30] = assay: (§2) Plasma clearance in Sprague-Dawley rat at 4 mg/kg, po; format: ADME, organism-based; parameters: dose 4 mg/kg, route oral; conditions: in vivo
Rattus norvegicus [31] = assay: (§3) AUC (0 to 4 hrs) in Sprague-Dawley rat at 4 mg/kg, po; format: ADME, organism-based, Plasma; parameters: time < 4 hr, dose 4 mg/kg, route oral; conditions: in vivo, 4 h
[32] = Selectivity for HCV NS3/4A protease over trypsin
[33] = Selectivity for HCV NS3/4A protease over chymotrypsin
[34] = Inhibition of HCV 2a NS3/4A protease; parameters: species or system Hepatitis C virus subtype 2a
[35] = Inhibition of HCV 3a NS3/4A protease; parameters: species or system Hepatitis C virus subtype 3a
[36] = Inhibition of HCV NS3/4A protease; parameters: species or system Hepacivirus hominis
[37] = as §2; format: ADME, organism-based; parameters: dose 4 mg/kg, route oral; conditions: Sprague-Dawley, plasma
[38] = Plasma clearance in Sprague-Dawley rat at 4 mg/kg, iv; format: ADME, organism-based; parameters: dose 4 mg/kg, route intravenous
[39] = AUC in Sprague-Dawley rat at 4 mg/kg, iv; format: ADME, organism-based; parameters: dose 4 mg/kg, route intravenous; conditions: plasma
[40] = Cmax in Sprague-Dawley rat at 4 mg/kg, iv; format: ADME, organism-based; parameters: dose 4 mg/kg, route intravenous; conditions: in vivo
[41] = Bioavailability in Sprague-Dawley rat at 4 mg/kg, iv; format: ADME, organism-based; conditions: in vivo
[42] = as §3; format: ADME, organism-based, Plasma; parameters: time < 4 hr, dose 4 mg/kg, route oral; conditions: Sprague-Dawley, plasma

Structure (SMILES): C=C[C@@H]1C[C@]1(NC(=O)[C@@H]1C[C@@H]2CN1C(=O)[C@H](C(C)C)Nc1nc(cs1)C(C)(C)CCCc1ccc3ccnc(c3c1)O2)C(=O)NS(=O)(=O)C1CC1.O=C(O)C(F)(F)F
Ki (Hepatitis C virus [1]): 3 nM
EC50 (Hepatitis C virus [2]): 20 nM
EC50 (Hepatitis C virus [3]): 100 nM
AUC(0-t) at 4 h [4]: 0.8 µM·h
concentration at 4 h [5]: 3600 nM

Structure (SMILES): C=C[C@@H]1C[C@]1(NC(=O)[C@@H]1C[C@@H]2CN1C(=O)[C@H]([C@@H](C)CC)Nc1nc(cs1)CCC/C=C/c1cccc3c1CN(C3)C(=O)O2)C(=O)[N-]S(=O)(=O)C1CC1.[K+]
clearance [9]: 38 mL/min/kg
AUC [10]: 1.7 µM·h
AUC [11]: 2.5 µM·h
AUC [12]: 13.3 µM·h
AUC [13]: 21 µM·h
AUC [14]: 0.2 µM·h
AUC [15]: 0.5 µM·h
AUC [16]: 10 µM·h
Cmax [17]: 500 nM
Cmax [18]: 1400 nM
Cmax [19]: 5900 nM
Cmax [20]: 8000 nM
Cmax [21]: 60 nM
Cmax [22]: 1160 nM
Cmax [23]: 4000 nM
bioavailability [8]: 26%
bioavailability [24]: 17%
concentration at 24 h [25]: 10 nM
concentration at 24 h [26]: 40 nM
concentration at 24 h [27]: 60 nM

Structure (SMILES): C=C[C@@H]1C[C@]1(NC(=O)[C@@H]1C[C@@H]2CN1C(=O)[C@H](C(C)C)Nc1nc(cs1)CCCCc1ccc3nc(-c4ccccc4)cc(c3c1)O2)C(=O)NS(=O)(=O)C1CC1.O=C(O)C(F)(F)F
Ki (Hepatitis C virus [1]): 0.5 nM
EC50 (Hepatitis C virus [2]): 40 nM
EC50 (Hepatitis C virus [3]): 390 nM
AUC(0-t) at 4 h [4]: < 0.01 µM·h
concentration at 4 h [5]: < 10 nM

Structure (SMILES): C=C[C@@H]1C[C@]1(NC(=O)[C@@H]1C[C@@H]2CN1C(=O)[C@H](C(C)(C)C)Nc1nc(cs1)CCCCc1ccc3ccnc(c3c1)O2)C(=O)NS(=O)(=O)C1CC1.O=C(O)C(F)(F)F
Ki (Hepatitis C virus [1]): 0.2 nM
EC50 (Hepatitis C virus [2]): 20 nM
EC50 (Hepatitis C virus [3]): 130 nM
AUC(0-t) at 4 h [4]: 0.1 µM·h
concentration at 4 h [5]: 1000 nM

Structure (SMILES): C=C[C@@H]1C[C@]1(NC(=O)[C@@H]1C[C@@H]2CN1C(=O)[C@H](C(C)(C)C)Nc1nc(cs1)CCC/C=C/c1cccc3c1CN(C3)C(=O)O2)C(=O)NS(=O)(=O)C1CC1.O=C(O)C(F)(F)F
concentration at 4 h [28]: 130 nM
Ki (Hepatitis C virus [1]): 0.16 nM
EC50 (Hepatitis C virus [2]): 3 nM
EC50 (Hepatitis C virus [3]): 23 nM
bioavailability [29]: 6%
CL (Rattus norvegicus [30]): 85 mL/min/kg
AUC (Rattus norvegicus [31]): 0.06 µM·h

Structure (SMILES): C=C[C@@H]1C[C@]1(NC(=O)[C@@H]1C[C@@H]2CN1C(=O)[C@H]([C@@H](C)CC)Nc1nc(cs1)CCC/C=C/c1cccc3c1CN(C3)C(=O)O2)C(=O)NS(=O)(=O)C1CC1
fold change (FC) [32]: > 15000
fold change (FC) [33]: > 15000

Continued, in another order:

CL (Rattus norvegicus [6]): 95 mL/min/kg
EC50 (Hepatitis C virus [2]): 4 nM
AUC (Rattus norvegicus [7]): 0.06 µM·h
concentration at 4 h [5]: 60 nM
bioavailability [8]: 5%
Structure (SMILES): C=C[C@@H]1C[C@]1(NC(=O)[C@@H]1C[C@@H]2CN1C(=O)[C@H](C(C)(C)C)Nc1nc(cs1)CCCCCc1cccc3c1CN(C3)C(=O)O2)C(=O)NS(=O)(=O)C1CC1.O=C(O)C(F)(F)F
Ki (Hepatitis C virus [1]): 0.16 nM
EC50 (Hepatitis C virus [3]): 19 nM

concentration at 4 h [28]: 350 nM
Ki [34]: 0.4 nM
Ki [35]: 45 nM
Ki [36]: 4 nM
EC50 (Hepatitis C virus [2]): 2 nM
EC90 (Hepatitis C virus [2]): 3 nM
bioavailability [29]: 13%
CL/F [37]: 17 mL/min/kg
clearance [38]: 17 mL/min/kg
AUC [39]: 0.7 µM·h
Cmax [40]: 400 nM
bioavailability [41]: 13%
AUC(0-t) at 4 h [42]: 0.7 µM·h
Structure (SMILES): C=C[C@@H]1C[C@]1(NC(=O)[C@@H]1C[C@@H]2CN1C(=O)[C@H]([C@@H](C)CC)Nc1nc(cs1)CCC/C=C/c1cccc3c1CN(C3)C(=O)O2)C(=O)NS(=O)(=O)C1CC1.O=C(O)C(F)(F)F
Ki (Hepatitis C virus [1]): 0.04 nM
EC50 (Hepatitis C virus [3]): 18 nM
EC90 (Hepatitis C virus [3]): 40 nM

EC50 (Hepatitis C virus [2]): 8.7 nM
AUC(0-t) at 4 h [4]: 0.27 µM·h
concentration at 4 h [5]: 13400 nM
Structure (SMILES): C=C[C@@H]1C[C@]1(NC(=O)[C@@H]1C[C@@H]2CN1C(=O)[C@H](C(C)(C)C)NC(=O)OCCCCCc1ccc3ccnc(c3c1)O2)C(=O)NS(=O)(=O)C1CC1
Ki (Hepatitis C virus [1]): 0.2 nM
EC50 (Hepatitis C virus [3]): 46 nM
